From patent publication US20260083687A1, “COMPOUNDS FOR REDUCING LACTATION AND IMPROVING HEALTH” (AHV International B.V., priority 2022, published 2026) come the findings set out here.

One data set relates to cows. Briefly: Administering of DPD at abrupt dry off and occurrence of mastitis / new intramammary infections, milk leakage, SCC (Example 10). In kind it is in vivo, cow. On the procedure:
Study design. Cow description. 59 cows from 5 different farms were used for this study. The cows were randomly divided into 3 groups: • Control group; • DPD Treatment group 1: DC Liquid (500 mL) group (composition with 80 ml pure dipropyl disulfide); and • DPD Treatment group 2: DPD enriched onion Extract (OE) bolus (150 mL) group (corresponding to 80 ml pure dipropyl disulfide).
The control group consisted of 24 cows with an average milk production prior to dry off of 17.23 liters. […] The average lactation of the control group was 2.1 and they had on average a dry period of 48 days (10 animals in 1st lactation, 4 in 2nd lactation, 6 in 3th lactation and 4 in 4th lactation). 50% of all cows in the control group were observed leaking milk regardless of milk production prior to dry off, and the incidence goes up to 63% if the cows with production below or equal to 12.5 liters prior to dry off or discarded.
The DC Liquid treatment group consisted of 18 cows with an average mp prior to dry off of 21.61 liters (1 cow with a mp lower than 12.5 liters, lowest 11.40 liters and highest 32 liters). The average lactation of the DC Liquid group was 1.9 with 11 cows in 1st lactation, 2 cows in 2nd, 3 cows in 3th, and 2 cows in 5th lactation. The average dry period of this group was 49 days.
The DPD enriched OE bolus treatment group consisted of 17 cows with an average mp prior to dry off of 20.6 liters (lowest 13.8 and high 32 liters) and an average lactation of 2.2 (6 cows in 1 s lactation, 4 cows in 2nd, 4 cows in 3th, and 3 cows in 4th lactation). 1 cow dropped out during the dry period because of non-related lameness issues. The dry period of this group was on average 46 days.
After the last milking the cows received the dry off protocol according to the farms protocols. The DPD treatment groups received a DPD treatment in the form of a bolus dose by bolus shooter in the rumen. Both treatment groups consisted of treatment with 80 ml DPD. In all cases abrupt dry-off was applied, with no restriction in number of milking nor change of feed prior to dry-off. Before moving to the dry pen all cows underwent hoof trimming. During the dry period and after calving the cows were monitored for signs of mastitis. Before the cows were 30 days in lactation a SCC was determined to evaluate the dry period.
Intramammary infections (IMI) were defined as signs of a clinical mastitis (ao. Flocks, watery milk, coloring of milk) cases during the dry period and in the first 30 days in lactation or a rise in individual somatic cell count (ISCC) from before to after the dry period (threshold: 200,000 cells/mL) or both.

Data set [1] relates to Holstein Frisian dairy cows. Description: Effect of 80 ml synthetic DPD on udder pressure, stress behavior and milk leakage after abrupt dry off (Example 3). In kind it is in vivo, cow. On the procedure:
Holstein Frisian dairy cows were selected with a production of at least 12.5 kg milk/day at the last lactation. These cows were immediately treated after the last milking before abrupt dry off with 80 ml di-n-propyl disulfide (DPD) took place in the three studies of this example. Because of a limited number of available cows, a control group was available only in study 3. Treated cows were monitored for udder pressure, milk leakage and stress after the last milking every 12 hours for the first 72 hours.
46 Dairy cows (Holstein Frisian) from 7 farms in The Netherlands were enrolled in this field study for two months. In table 8 a description is presented with respect to some keeping conditions of and information about the cows.
After the last milking, the cows were isolated from the other lactating cows. Only at farm 2 and 6 the cows could hear the milking machine. After isolation the cows were administered 80 ml synthetic DPD. Hereafter, the cows were monitored by the farmer for 72 hours and scored each 12 hour after abrupt dry off. The farmer scored visually for milk leakage (yes/no-scores), udder pressure and stress according to a standard scoring form (see tables 9 and 10). Cows somatic cell count numbers were extracted from the last milk recording before drying and the first milk recording after calving (5-30 Days In Lactation).
Data analysis: the control groups with respect to milk leakage, udder stress and stress were scored and compared with the data as presented earlier in literature. For milk leakage, the data were compared assumed that 24.5% of the cows are going to leak milk after drying off (De Prado-Taranilla et al., 2020. Incidence of milk leakage after dry-off in European dairy herds, related risk factors, and its role in new intramammary infections. Journal of Dairy Science, 103(10), 9224-9237.). Udder Pressure (Bertulat et al., 2013. Measurement of fecal glucocorticoid metabolites and evaluation of udder characteristics to estimate stress after sudden dry-off in dairy cows with different milk yields. Journal of Dairy Science, 96(6), 3774-3787) and Stress (Chapinal et al., 2014. Changes in lying behavior after abrupt cessation of milking and regrouping at dry-off in free stall-housed cows: A case study. Journal of Veterinary Behavior, 9(6), 364-369;) were translated to the scoring tables as expected outcome (table 11).

The mark [2] stands for this setting: 80 ml synthetic DPD, abrupt dry off, vs control group.

In the case of `CCCSSCCC` [DPD, di-n-propyl disulfide], the “outcome of animals that entered the dry period diagnosed with an IMI” value with cows (3 animals (2 DC Liquid, 1 DPD enriched OE)) is reported as “all 3 recovered at the start of the new lactation”. In addition, in the data set with cows (80 ml DPD at abrupt dry off), the “animals diagnosed with a new IMI after calving” value is reported as 21% and the “cases with a decrease of SCC after calving” value is recorded as 61%. Also, the “incidence of milk leakage” value with cows (80 ml DPD at abrupt dry off, DPD treatment groups 1 and 2 combined) is on record as 17%. Also, the “reduction of risk of new IMI” value in the data set on cows (DPD treated groups combined vs control group) was found to be 42%. In the data set on cows (DPD treatment groups combined vs control group), the “reduction of incidence of milk leakage” value worked out at 73%. In addition, the “cows with signs of mastitis (flocks in milk)” value in the data set with cows (after calving, DPD treatment group) stood at 1 cow. Moreover, the “cows with signs of clinical mastitis” value with cows (during the dry period, DPD treatment group) is listed as 1 cow. Also, the side effects result in data set [1] (80 ml synthetic DPD after last milking, 46 cows) is “None of the cows showed any side effects”. In addition, in data set [1] (80 ml synthetic DPD at dry off), the “milk fever at calving” value is “None of the cows had milk fever at calving”. Also, the “average SCC (somatic cell count)” value in data set [1] (80 ml synthetic DPD at dry off, first milk recording of the new lactation) was 58,000 cells/ml. Moreover, in data set [1] (setting [2]), the milk leakage entry is listed as “less milk leakage”, the stress entry is on record as “lower” and the udder pressure entry is listed as “lower udder pressure”. Moreover, the “average SCC (somatic cell count)” value in data set [1] (last milk recording of the last lactation (before dry off)) is recorded as 89,000 cells/ml.
